Measurements from ChEMBL document CHEMBL1135964, “Highly potent inhibitors of TNF-alpha production. Part 2: identification of drug candidates” (Bioorg Med Chem Lett, 2002).

Assays:
Mus musculus [1] = assay: Tested for the inhibition of Tumor necrosis factor alpha production after intravenous administration at the dosage of 10 mg/kg to mice; no activity was observed; type: functional
Rattus norvegicus [2] = assay: Tested for the inhibition of umor necrosis factor alpha production after intravenous administration at the dosage of 30 mg/kg to rat; type: functional
Rattus norvegicus [3] = assay: Tested for the inhibition of Tumor necrosis factor alpha production after intravenous administration to rat; type: functional; conditions: read-out: ID50 (the source's name)
Rattus norvegicus [4] = assay: Tested for the inhibition of Tumor necrosis factor alpha production after intravenous administration at the dosage of 10 mg/kg to rat; type: functional; conditions: for inhibition in vivo at 10 mg/kg: Rattus norvegicus
Mus musculus [5] = assay: Tested for minimum effective dose in LPS-induced shock model in mice after intravenous administration at a dose of 5 mg / kg; survival rate=10/18; type: functional; conditions: read-out: MED
[6] = Tested for the safety in rats reported as minimum lethal dose; mortality rate=0/3; type: ADME; conditions: rat, in vivo
Rattus norvegicus [7] = assay: Tested for the inhibition of Inhibitor of Tumor necrosis factor alpha production after intravenous administration to rat; type: functional; conditions: read-out: ID50 (the source's name)
Rattus norvegicus [8] = assay: Tested for minimum effective dose in D-(+)-Galactosamine/ LPS-induced hepatitis model in rat after intravenous dosage of 1 g/ 7.5 ug/ 5 mL/kg; survival rate=7/18; type: functional; conditions: read-out: MED
Rattus norvegicus [9] = assay: Tested for minimum effective dose in D-(+)-Galactosamine/ LPS-induced hepatitis model in rat after intravenous dosage of 1 g/ 7.5 ug/ 5 mL/kg; survival rate=6/18; type: functional; conditions: read-out: MED
Mus musculus [10] = assay: Tested for minimum effective dose in LPS-induced shock model in mice after intravenous administration at a dose of 5 mg / kg; survival rate=14/20; type: functional; conditions: read-out: MED
Mus musculus [11] = assay: Tested for the inhibition of Tumor necrosis factor alpha production after intravenous administration in mice; type: functional; conditions: read-out: ID50 (the source's name)
Rattus norvegicus [12] = assay: Tested for minimum effective dose in D-(+)-Galactosamine/ LPS-induced hepatitis model in rat after intravenous dosage of 1 g/ 7.5 ug/ 5 mL/kg; survival rate=8/18; type: functional; conditions: read-out: MED
[13] = Tested for the safety in rats reported as minimum lethal dose; mortality rate=1/3; type: ADME; conditions: rat, in vivo

CCCCCCCC(=O)N[C@@H](CO)c1ccccc1
inhibition in vivo at 10 mg/kg (Mus musculus [1]): 14%

CCCCCCCC(=O)N[C@H](c1ccccc1)[C@@H](C)OP(=O)(O)O
inhibition in vivo at 30 mg/kg (Rattus norvegicus [2]): 23%

CCCCCCCC(=O)N[C@@H](c1cccc(OC)c1)[C@H](C)OP(=O)([O-])[O-].[Na+].[Na+]
ED50 (Rattus norvegicus [3]): 3.7 mg/kg

CCCCCCCC(=O)N[C@H](c1ccccc1)[C@H](CO)OP(=O)(O)O
inhibition in vivo at 10 mg/kg (Rattus norvegicus [4]): 42%

CCCCCCCC(=O)N(C)[C@@H](COP(=O)([O-])[O-])c1ccccc1.[Na+].[Na+]
ED50 (Rattus norvegicus [3]): 9.8 mg/kg

CCCCCCCC(=O)N[C@H](c1ccccc1)[C@@H](OP(=O)(O)O)c1ccccc1
inhibition in vivo at 10 mg/kg (Rattus norvegicus [4]): 3%

CCCCCCCC(=O)N[C@@H](c1ccccc1)[C@@H](C)OP(=O)(O)O
inhibition in vivo at 30 mg/kg (Rattus norvegicus [2]): 5%

CCCCCCCC(=O)N[C@@H](c1ccccc1)[C@H](C)OP(=O)(O)O
inhibition in vivo at 30 mg/kg (Rattus norvegicus [2]): 17%

CCCCCCCC(=O)N[C@H](c1ccccc1)[C@H](C)OP(=O)([O-])[O-].[Na+].[Na+]
ED50 (Rattus norvegicus [3]): 4.5 mg/kg

CCCCCCCC(=O)N[C@@H]1c2ccccc2C[C@@H]1OP(=O)([O-])[O-].[Na+].[Na+]
Inhibition (Rattus norvegicus [4]): 34%

CCCCCCCC(=O)N[C@H](c1cccc(OC)c1)[C@H](C)OP(=O)([O-])[O-].[Na+].[Na+]
minimal effective dose (Mus musculus [5]): 0.1 mg/kg | MLD [6]: > 100 mg/kg | ED50 (Rattus norvegicus [7]): 0.03 mg/kg | minimal effective dose (Rattus norvegicus [8]): 0.3 mg/kg

CCCCCCOC(=O)N[C@H](c1cccc(OC)c1)[C@H](C)OP(=O)([O-])[O-].[Na+].[Na+]
minimal effective dose (Rattus norvegicus [9]): 0.1 mg/kg | minimal effective dose (Mus musculus [10]): 0.1 mg/kg | MLD [6]: > 100 mg/kg | ED50 (Rattus norvegicus [3]): 0.02 mg/kg

CCCCCCCC(=O)N[C@@H](COP(=O)([O-])[O-])c1ccccc1.[Na+].[Na+]
ED50 (Rattus norvegicus [3]): 3 mg/kg

CCCCCCCC(=O)N[C@@H](COP(=O)([O-])[O-])c1cccc(OC)c1.[Na+].[Na+]
ED50 (Rattus norvegicus [3]): 0.26 mg/kg

CCCCCCCC(=O)N[C@@H](c1cccc(OC)c1)[C@@H](C)OP(=O)(O)O
inhibition in vivo at 10 mg/kg (Rattus norvegicus [4]): 38%

CCCCCCCC(=O)N[C@H](c1cccc(OC)c1)C(C)(C)OP(=O)(O)O
inhibition in vivo at 10 mg/kg (Rattus norvegicus [4]): 12%

CCCCCCCC(=O)N[C@H](c1ccccc1)C1(OP(=O)([O-])[O-])CCC1.[Na+].[Na+]
ED50 (Mus musculus [11]): 9.5 mg/kg

CCCCCCCC(=O)N[C@H](c1cccc(OC(C)C)c1)[C@H](C)OP(=O)([O-])[O-].[Na+].[Na+]
minimal effective dose (Rattus norvegicus [12]): 0.3 mg/kg | minimal effective dose (Mus musculus [5]): 0.3 mg/kg | MLD [13]: 100 mg/kg | ED50 (Rattus norvegicus [3]): 0.05 mg/kg

CCCCCCCC(=O)N[C@@H]1c2ccccc2C[C@H]1OP(=O)([O-])[O-].[Na+].[Na+]
ED50 (Rattus norvegicus [3]): 2.4 mg/kg

CCCCCCCC(=O)N[C@H](c1cccc(OC)c1)[C@@H](C)OP(=O)(O)O
inhibition in vivo at 10 mg/kg (Rattus norvegicus [4]): -13%
